Experimental data reported in patent US6040330A, “Pharmaceutical formulations of taxanes” (BioNumerik Pharmaceuticals, Inc., priority 1999, dated 2000).
Values after ≈ are worked out from the molar mass of the structure shown.

Tests used:
[1] = maximum solubility in NMP; format: physicochemical; conditions: organic solvent or mixture; in NMP (N-methylpyrrolidin-2-one)
[2] = cited from earlier work

solubility [1] [mg/mL] | SMILES | solubility in water (in words) [2] | water solubility ([2]; in water)
~40 (≈ 49.5 mM) | CC(=O)O[C@@]12CO[C@@H]1C[C@H](O)[C@@]1(C)C(=O)[C@H](O)C3=C(C)[C@@H](OC(=O)[C@H](O)[C@@H](NC(=O)OC(C)(C)C)c4ccccc4)C[C@@](O)([C@@H](OC(=O)c4ccccc4)[C@H]21)C3(C)C [Docetaxel] | very poorly soluble in water | 
~40 (≈ 46.8 mM) | CC(=O)O[C@H]1C(=O)[C@@]2(C)[C@H]([C@H](OC(=O)c3ccccc3)[C@]3(O)C[C@H](OC(=O)[C@H](O)[C@@H](NC(=O)c4ccccc4)c4ccccc4)C(C)=C1C3(C)C)[C@]1(OC(C)=O)CO[C@@H]1C[C@@H]2O [Paclitaxel] | very poorly water soluble | less than 10 μg/mL
